Data reported in ChEMBL document CHEMBL3507680, “University of Dundee, Gates Library screen for HepG2 cell viability”.

Assay: Human HepG2 cell viability assay in 384 well format
Format: toxicity, cell-based
Parameters: dose 125 nL, time 70.5 hour; cytotoxicity at 70.5 h: concentration not given beside the values
Conditions: HepG2 cells, read-out: Inhibition

| Structure (SMILES) | cytotoxicity at 70.5 h [%] |
| --- | --- |
| Cc1nc(-c2cccc(C(=O)O)c2)cc(C2CCCN(C(C)C)C2)n1 (stereo not drawn) | 13.2 |
| Cc1ccc(-c2nc(CNC3CCc4ncnn4C3)cs2)cc1 (stereo not drawn) | 2.93 |
| CSCc1noc(CNS(=O)(=O)c2cccc(C(=O)NC3CC3)c2)n1 | -10.1 |
| CCN(CC)CCNC(=O)c1cc(C(C)C)nc(N2CCCC2)n1 | 56.7 |
| O=C(O)C1(n2ccnc2)CCN(Cc2cc3ccccc3o2)CC1 | -5.42 |
| COc1cc(CNCCn2ccnc2)cc2c1OCO2 | 1.27 |
| Cc1cc(CNc2ccnn2C)ccc1-n1cncn1 | -1.29 |
| COCC1(C(=O)N2CCC(c3nccn3CC3CC3)CC2)CCC1 | 2.4 |
| COc1ccc2c(c1)c(C(=O)Nc1nnn[nH]1)cn2C | -13.5 |
| Cn1nnc2c1CCN(Cc1ccoc1)C2COCc1ccccc1 (stereo not drawn) | 1.66 |
| CCCc1ccc(C(=O)N2Cc3c(Cn4ccnc4)nn(C)c3C2)cc1 | -8.3 |
| Cc1nn(C)c(C)c1CC(C)NC(=O)NCc1ccn(C(C)C)n1 (stereo not drawn) | -5.76 |
| O=C(N1CCCC1)N1CCOCC2(CCN(Cc3cccs3)C2)C1 (stereo not drawn) | 29.2 |
| c1cncc(CNc2ccc3nc(C4CCNCC4)nn3c2)c1 | -4.24 |
| CN(C)C(=O)c1c[nH]nc1C1CCN(S(=O)(=O)c2cccc(Cl)c2)CC1 | 9.14 |
| CC(C)CN1CC(O)CN(S(=O)(=O)c2ccccc2)CC1=O (stereo not drawn) | -10.6 |
| CCS(=O)(=O)c1ncc(CN(C)Cc2ccccn2)n1CCOC | -5.34 |
| Cc1ccc(OCCC(=O)NC2CC(=O)N(C)C2)cc1C (stereo not drawn) | -6.43 |
| Cc1ccc(C(=O)N2CC[C@H]3O[C@@H](c4noc(C)n4)C[C@H]3C2)o1 | -8.48 |
| O=C(NCCNc1ncccn1)N1CCCC(C(F)(F)F)C1 (stereo not drawn) | -9.23 |
| CC(=O)N1CCN(C[C@H]2CC[C@@H](Cc3ccc4ncccc4c3)O2)CC1 | -10.6 |
| Cn1c(CN2CCN(CC3CCCO3)CC2)nc2ccccc21 (stereo not drawn) | -9.16 |
| Cc1noc(CNC(=O)CN(C)c2nc3ccccc3s2)n1 | -5.76 |

| Structure (SMILES) | cytotoxicity at 70.5 h [%] |
| --- | --- |
| CN(C)Cc1cc(C2CCCCN2S(=O)(=O)Cc2ccccc2)nn1C (stereo not drawn) | -14.1 |
| Cn1ccc(C(=O)NC2CCC23CCN(Cc2cccnc2)CC3)c1 (stereo not drawn) | -7.38 |
| Cn1cc(CC(=O)N2CCCC(c3ccn[nH]3)C2)cn1 (stereo not drawn) | -1.63 |
| c1csc(N2CCCN(Cc3nc(C4CC4)no3)CC2)n1 | -15.8 |
| CCCn1cc(C(=O)N(C)Cc2nc(-c3ccccn3)no2)c(C)n1 | -8.48 |
| Nc1ccnc(N2C[C@H](O)[C@@H](N3CCN(c4ccccn4)CC3)C2)n1 | -17.6 |
| CNc1cc2c(nn1)CCN(C(=O)c1ccc(-n3nccc3C)cc1)C2 | -5.27 |
| O=C1NCCN1C1CCN(Cc2nc(-c3ccsc3)no2)CC1 | 32.4 |
| O=C(NCc1ccco1)c1cc[n+]([O-])cc1 | -4.13 |
| CC(C)n1ccnc1C1CCN(C(=O)c2ccccc2N(C)C)CC1 | -2.41 |
| Cc1cc(C)cc(CCC(=O)N2CCN(c3cc(C)nc(N)n3)CC2)c1 | 6.95 |
| CCOc1ccc(C(=O)N2CCN(c3nccn3C)CC2)cc1 | -0.809 |
| Cc1nc(C)n(CC2CCCN(CC(=O)N3CCCC3)C2)n1 (stereo not drawn) | -4.82 |
| CSCc1cccc(S(=O)(=O)NCc2cnn(C)c2C)c1 | -2.3 |
| CN(Cc1nc2ccccc2n1C)C(=O)CCc1cscn1 | -1.17 |
| Cc1nc(C)n(CC2CCCN(CC3CCCCC3)C2)n1 (stereo not drawn) | -1.64 |
| CCOCCNC(=O)CCC1CCCO1 (stereo not drawn) | 35.5 |
| c1cc(CN2CCCC2c2noc(C3CC3)n2)on1 (stereo not drawn) | -15.8 |
| Cc1csc2ncc(-c3ccnc(N4CCC[C@H](C(N)=O)C4)n3)c(=O)n12 | 14.4 |
| Cc1ccc(C(=O)N2CCCCC2CNC(N)=O)s1 (stereo not drawn) | -6.25 |
| Cc1ncsc1C(=O)N(C)Cc1ccccc1 | -4.43 |
| c1ccc(CCN2CCOC(Cn3cccn3)C2)nc1 (stereo not drawn) | -4.02 |
| COc1ccc2c(c1)nc1n2[C@@H](CNCc2ncccc2C)COC1 | -5.69 |

| Structure (SMILES) | cytotoxicity at 70.5 h [%] |
| --- | --- |
| c1cnc(N2CCC3(CCCN(CC4CCCCC4)C3)C2)cn1 (stereo not drawn) | -11.2 |
| O=C(c1sccc1C1CC1)N1CCCN(Cc2cscn2)CC1 | -0.238 |
| Cc1cc(C)nc(N2CCc3ccc(OC(F)F)cc3C2)n1 | -2.64 |
| Cc1cc(CN2C[C@H](N3CCOCC3)[C@@H]3OCCC[C@@H]32)oc1C | -7.89 |
| CC(O)CN1CCC(CN(C)Cc2cccc(C(=O)N(C)C)c2)CC1 (stereo not drawn) | 12.1 |
| Cc1ccc2c(n1)N(CCn1cccn1)CCN(C(=O)NC1CC1)C2 | -10.7 |
| CC(C)N(CCNc1nc(C2CCCC2)nc2c1cnn2C)C(C)C | -1.41 |
| O=C(N1CCOCC1)[C@@]12CCO[C@@H]1CCN(Cc1ccccc1F)C2 | -9.82 |
| Cc1noc(C2CCN(C(C)c3nc(C4CC4)no3)CC2)n1 (stereo not drawn) | -16.9 |
| O=C(COC1CCCCC1)N1CCCC(n2ccnc2)C1 (stereo not drawn) | -6.58 |
| COCCCN(CCOC)C(=O)Nc1ccccc1Br | -15.2 |
| Cc1ccc(C(=O)N2CCN(S(C)(=O)=O)CC2)cc1N1CCNC1=O | -1.5 |
| Cc1ncsc1C(=O)N(C)Cc1cccc(Cl)c1 | 9.51 |
| CN1CCOC(CN(C(=O)CCc2ccco2)c2nccs2)C1 (stereo not drawn) | 10.3 |
| CCc1ccc(C(=O)N2CCCC2c2c(C)nn(C)c2OC)o1 (stereo not drawn) | -6.13 |
| Cc1nc(COC[C@@H]2CC[C@H]3[C@H](CCN3c3ncccn3)O2)cs1 | -7.79 |
| CC(C(=O)N1CCN(Cc2ccc3c(c2)OCO3)CC1)n1ccnc1 (stereo not drawn) | 0.67 |
| Cc1ccc(CN2CCC3(CC2)C(=O)N(CC(C)C)CCN3C)o1 | -10.1 |
| O=C(CN1CCOC(Cn2cncn2)C1)NC(C1CC1)C1CC1 (stereo not drawn) | 9.73 |
| CN(C)C(=O)C1(C)CN(Cc2cn(C)c3ccccc23)CCO1 (stereo not drawn) | -4.04 |
| c1cc(CNCc2ccc(Cn3cncn3)cc2)c2c(c1)OCCO2 | -11.4 |
| Cc1cnccc1CN1C[C@@H](O)[C@H](Oc2ccccc2)C1 | -5.34 |
| Cc1ccc(C(=O)N2CCO[C@H]3[C@H](OCCN(C)C)CC[C@@H]32)o1 | -4.42 |

| Structure (SMILES) | cytotoxicity at 70.5 h [%] |
| --- | --- |
| c1cnnc(N2CCCC(NCc3nc(-c4ccco4)no3)C2)c1 (stereo not drawn) | 46.2 |
| Cc1cc(C)c2nc(CN3CCOCC(O)C3)cc(O)c2c1 (stereo not drawn) | -0.735 |
| CCSc1ccccc1C(=O)NCCn1nc(-n2cncn2)ccc1=O | -10.2 |
| Cc1cnc(N2C[C@@H]3[C@@H](C2)OCC(=O)N3CC(C)C)nc1 | 2.16 |
| Cc1nc(NC(=O)CCOCC(F)(F)F)ccc1Br | 2.27 |
| Cn1ccnc1COc1ccc(CO)cc1 | -6.37 |
| Cc1c(C2CC2)n[nH]c1NC(=O)C1CCCN(C(=O)NCC(C)C)C1 (stereo not drawn) | -4.52 |
| O=S(=O)(Cc1ccc(F)cc1F)NCCOc1cccnc1 | -18.9 |
| CCn1ccnc1CN1CCN(CC(O)c2ccco2)CC1 (stereo not drawn) | -5.46 |
| Nc1nc2c(c(N3CCCC(OCc4ccccn4)C3)n1)CCNCC2 (stereo not drawn) | -6.98 |
| COc1ccc(C(C)Nc2ncc(C(N)=O)cc2Cl)c(OC)c1 (stereo not drawn) | -4.47 |
| Cc1noc(C)c1S(=O)(=O)N(C)Cc1nn(C)c(Cl)c1Cl | 24.3 |
| CN(C)C(=O)c1cnc2n1CCN(Cc1ccccc1)C2 | -15.3 |
| CCc1nc2n(n1)CC(NCc1noc(-c3ccc(C)cc3)n1)CC2 (stereo not drawn) | 0.731 |
| Cc1ccc(SCCN(C)C(=O)c2cn([C@H]3CC[C@@H](N)CC3)nn2)cc1 | 16.5 |
| Cc1ccc(-n2nc(C)c3c2NC(=O)CC3c2cnc(N)s2)cc1 (stereo not drawn) | -0.62 |
| Cc1ncsc1C(=O)NCCOc1ncc(Cl)cc1Cl | 1.13 |
| COc1cccc(Cn2cccc(C#N)c2=O)c1 | -7 |
| O=C(CCN1CCCC1c1cccc2c1OCCO2)N1CCOCC1 (stereo not drawn) | -2.76 |
| COCC1CCN(S(=O)(=O)N2C[C@@H](C)[C@](O)(C3CC3)C2)CC1 | -1.25 |
| CSCCC(=O)NCc1cc2n(n1)CCCN(C1CCCCC1)C2 | 34.5 |
| Cc1cccc(CN2CCN3C[C@H](Oc4cncnc4)C[C@H]3C2)n1 | -0.54 |
| CC(=O)N[C@H]1C[C@@H](c2nc(-c3ccc4c(c3)OCO4)no2)N(C)C1 | 2.89 |

| Structure (SMILES) | cytotoxicity at 70.5 h [%] |
| --- | --- |
| Cc1nn(C)c(C)c1C(C(=O)O)N1CCc2ccccc2C1 (stereo not drawn) | 0.959 |
| CCCN1CCN(C(=O)c2ccc(Cn3cc(Br)cn3)cc2)CC1 | -7.06 |
| O=C(c1ccc2occc2c1)N1CCC(C(=O)O)(n2cccn2)CC1 | -4.27 |
| Cc1cccc(CN2C[C@H](OCc3csc(C)n3)[C@H]3COC[C@H]32)n1 | -3.75 |
| CCc1nc(CNC2CCCc3c2cnn3CC)cs1 (stereo not drawn) | 6.14 |
| N#CCc1ccc(NC(=O)N[C@H](CO)Cc2ccc(O)cc2)cc1 | -9.07 |
| Nc1cc2c(nn1)CCN(C(=O)c1csc(-c3cccs3)n1)C2 | -6.75 |
| CCC(CC)C(CNC(=O)Nc1cc(C)nn1C)N1CCOCC1 (stereo not drawn) | 36.9 |
| Nc1nc(CN2CCOC(Cn3cccn3)C2)nc2ccccc12 (stereo not drawn) | -11.8 |
| COc1ccc(CN2C[C@@H]3OCC(=O)N(CC(N)=O)[C@@H]3C2)cc1 | 2.86 |
| CC(C)(C)n1cc(C(=O)O)c(-c2ccc(F)cc2F)n1 | -18.2 |
| CCc1nn(C)c(Cl)c1CN1CCCC(c2cc(O)nc(C)n2)C1 (stereo not drawn) | -0.921 |
| O=C(NC1CCC1)C1CCC2(CN(C(=O)c3ccno3)C2)O1 (stereo not drawn) | -14 |
| N#Cc1ccc(OC2CCN(CC(=O)NCC3CCCO3)CC2)cc1 (stereo not drawn) | -5 |
| O=C(NCCc1nnc2n1CCC2)NC1(c2cccc(F)c2)CC1 | 7.47 |
| CN(CC(=O)N(C)C1CC1)C1CCN(c2ccc(Cl)cc2)CC1 | 24.7 |
| CCC(=O)N1CSCC1C(=O)N(C)CCc1ccccc1 (stereo not drawn) | 7.14 |
| COc1ccc(C(=O)N2CCCC(n3cc(C)cn3)C2)c(F)c1 (stereo not drawn) | -3.25 |
| CNc1ncc(CN(C)C(=O)[C@@]23CNC[C@@H]2CN(C(=O)C2CC2)C3)cn1 | -7.16 |
| CCN(Cc1ccncc1)C(=O)c1cn(CCC2CCCCC2)nn1 | -16 |
| Cc1cnn(CCNCC(=O)Nc2ccc(Br)cn2)c1 | -4.64 |
